# According to ChEMBL document CHEMBL5537177, “Discovery of Potent Antimalarial Type II Kinase Inhibitors with Selectivity over Human Kinases” (J Med Chem, 2024):
# pEC50: −log10 of the molar value. Calls of active or inactive are those of the source. No cut-off for these calls is given here.
# Legend:
# HepG2 = assay: Cytotoxicity against human HepG2 cells assessed as reduction in cell viability incubated for 48 hrs by MTS assay; format: toxicity, cell-based; conditions: hepg2
# [1] = Selectivity index, ratio of EC50 for human HepG2 cells to EC50 for multidrug-resistant Plasmodium falciparum Dd2 at ring stage infected in A+ erythrocytes; format: toxicity, cell-based; conditions: read-out: Ratio EC50
# MCF7 = assay: Cytotoxicity against human MCF7 cells assessed as reduction in cell viability incubated for 48 hrs by MTS assay; format: toxicity, cell-based; conditions: mcf7
# [2] = Selectivity index, ratio of EC50 for human MCF7 cells to EC50 for multidrug-resistant Plasmodium falciparum Dd2 at ring stage infected in A+ erythrocytes; format: toxicity, cell-based; conditions: read-out: Ratio EC50
# [3] = AUC (infinity) in mouse at 2 mg/kg, iv; format: ADME, organism-based; conditions: in vivo
# [4] = Clearance in mouse at 2 mg/kg, iv; format: ADME, organism-based; conditions: in vivo
# [5] = Cmax in mouse at 10 mg/kg, po; format: ADME, organism-based; conditions: in vivo
# [6] = Oral bioavailability in mouse at 10 mg/kg; format: ADME, organism-based; conditions: in vivo
# Plasmodium berghei [7] = assay: Antimalarial activity against Plasmodium berghei sporozoites expressing luciferase infected in human HepG2-A16-CD81 cells assessed as reduction in parasite growth incubated for 18 hrs; format: functional, organism-based; conditions: HepG2-A16-CD81, 18 h
# Plasmodium berghei [8] = assay: Antimalarial activity against blood-stage Plasmodium berghei sporozoites expressing GFP-Luc SMcon infected in Swiss Webster mouse assessed as reduction in parasitemia at 15 mg/kg, iv pre-infected with mouse RBC containing Plasmodium berghei sporozoites followed by compound administration measured for 2 to 16 days post-infection by SYBR Green I dye based flow cytometry; format: functional, organism-based; conditions: Erythrocyte, time 2-16 day
# Plasmodium falciparum [9] = assay: Antimalarial activity against synchronous blood-stage Plasmodium falciparum 3D7 assessed as log of parasite reduction ratio at 10 times EC50 treated every 24 hrs for 120 hrs followed by compound washout and subsequent addition of RBCs measured after 21 days; format: functional
# Plasmodium falciparum [10] = assay: Antimalarial activity against synchronized Plasmodium falciparum Dd2 assessed as parasite growth inhibition at ring stage at 5 times EC50 treated 6 hrs post-invasion measured after 54 hrs post-invasion by Geimsa staining based microscopy; format: functional, organism-based; conditions: time 48.0 hrs
# Plasmodium falciparum [11] = assay: Antimalarial activity against synchronized Plasmodium falciparum Dd2 assessed as malformation of parasites at 5 times EC50 treated 18 to 30 hrs post-invasion measured after 54 hrs post-invasion by Geimsa staining based microscopy; format: functional, organism-based; conditions: time 24-36 hrs
# Plasmodium falciparum [12] = assay: Antimalarial activity against synchronized Plasmodium falciparum Dd2 assessed as aberrant morphology of parasites at 5 times EC50 treated 42 hrs post-invasion measured after 54 hrs post-invasion by Geimsa staining based microscopy; format: functional, organism-based; conditions: time 12.0 hrs
# Plasmodium falciparum [13] = assay: Antimalarial activity against synchronized Plasmodium falciparum 3D7 assessed as reduction in parasite growth at early asexual stage treated 6 hrs post-invasion measured after 72 hrs by SYBR green I dye based microscopy; format: functional, organism-based
# Plasmodium falciparum [14] = assay: Antimalarial activity against synchronized Plasmodium falciparum Dd2 assessed as reduction in parasite growth at early asexual stage treated 16 hrs post-invasion measured after 72 hrs by SYBR green I dye based microscopy; format: functional, organism-based
# Plasmodium falciparum [15] = assay: Antimalarial activity against synchronized Plasmodium falciparum Dd2 assessed as reduction in parasite growth at early asexual stage treated 26 hrs post-invasion measured after 72 hrs by SYBR green I dye based microscopy; format: functional, organism-based
# Plasmodium falciparum [16] = assay: (§1) Antimalarial activity against artemisinin-sensitive synchronized early ring stage Plasmodium falciparum IPC 5188 (MRA-1239) clinical isolate assessed as decrease in parasite survival at ring stage at 10 times EC50 treated for 48 hrs followed by compound removal measured after 72 hrs by geimsa staining based microscopy; format: functional, organism-based
# Plasmodium falciparum [17] = assay: as §1, with “artemisinin-resistant” for “artemisinin-sensitive”, “5202 (MRA-1240)” for “5188 (MRA-1239)”; format: functional, organism-based
# Plasmodium falciparum [18] = assay: as §1, with “artemisinin/piperaquine-resistant” for “artemisinin-sensitive”, “6261 (MRA-1284)” for “5188 (MRA-1239)”; format: functional, organism-based
# Plasmodium falciparum [19] = assay: Antimalarial activity against synchronized early ring stage Plasmodium falciparum 3D7 (MRA-152) clinical isolate assessed as decrease in parasite survival at ring stage at 10 times EC50 treated for 48 hrs followed by compound removal measured after 72 hrs by geimsa staining based microscopy; format: functional, organism-based
# Plasmodium falciparum [20] = assay: as §1, with “artemisinin/piperaquine-resistant” for “artemisinin-sensitive”, “6261 (MRA-1284)” for “5188 (MRA-1239)”, “for 6 to” for “for”; format: functional, organism-based
# Plasmodium falciparum [21] = assay: Antimalarial activity against patient-derived ring-stage Plasmodium falciparum clinical isolate from Busiu town of Uganda infected in O+ RBCs assessed as reduction in parasitemia incubated for 72 hrs by SYBR green I dye based analysis; format: functional, organism-based, RBC; conditions: Erythrocyte
# Plasmodium falciparum [22] = assay: Antimalarial activity against ring-stage Plasmodium falciparum Dd2 infected in O+ RBCs assessed as reduction in parasitemia incubated for 72 hrs by SYBR green I dye based analysis; format: functional, organism-based, RBC; conditions: Dd2, Erythrocyte
# Plasmodium falciparum [23] = assay: Antimalarial activity against ring-stage Plasmodium falciparum 3D7 infected in O+ RBCs assessed as reduction in parasitemia incubated for 72 hrs by SYBR green I dye based analysis; format: functional, organism-based, RBC; conditions: 3D7, Erythrocyte
# Plasmodium falciparum [24] = assay: Antimalarial activity against Plasmodium falciparum harboring CARL I1139K mutation assessed as reduction in parasitemia incubated for 72 hrs by SYBR green I dye based analysis; format: functional, organism-based
# Plasmodium falciparum [25] = assay: Antimalarial activity against Plasmodium falciparum harboring PI4K S1320L mutation assessed as reduction in parasitemia incubated for 72 hrs by SYBR green I dye based analysis; format: functional, organism-based
# Plasmodium falciparum [26] = assay: Antimalarial activity in ring-stage Plasmodium falciparum Dd2-B2 infected in human O+ erythrocytes assessed as reduction in parasitemia incubated for 72 hrs by SYBR Green I/ MitoTracker Deep Red dye based flow cytometry; format: functional, organism-based; conditions: Dd2-B2, 72 h
compound,measurement,setting,value
CCN1CCN(Cc2ccc(NC(=O)c3cc(Cl)cc(NC(=O)c4cncc(-c5cccs5)c4)c3)cc2C(F)(F)F)CC1,pEC50,HepG2,5.59
same,selectivity ratio,[1],45
same,pEC50,MCF7,5.45
same,selectivity ratio,[2],61
same,AUC(0-inf),[3],8160 ng·h/mL
same,clearance,[4],4.3 mL/min/kg
same,Cmax,[5],153 ng/mL
same,bioavailability,[6],4.8%
same,pEC50,Plasmodium berghei [7],5.75
same,Activity,Plasmodium berghei [8],Active
same,log(activity),Plasmodium falciparum [9],3.75
same,inhibition,Plasmodium falciparum [10],Active
same,Activity,Plasmodium falciparum [11],Active
same,Activity,Plasmodium falciparum [12],Active
same,pEC50,Plasmodium falciparum [13],7.53
same,pEC50,Plasmodium falciparum [14],7.43
same,pEC50,Plasmodium falciparum [15],7.16
same,Activity,Plasmodium falciparum [16],Active
same,Activity,Plasmodium falciparum [17],Active
same,Activity,Plasmodium falciparum [18],Active
same,Activity,Plasmodium falciparum [19],Active
same,pEC50,Plasmodium falciparum [20],6.97
same,pEC50,Plasmodium falciparum [21],8.04
same,pEC50,Plasmodium falciparum [22],7.64
same,pEC50,Plasmodium falciparum [23],7.99
same,pEC50,Plasmodium falciparum [24],7.18
same,pEC50,Plasmodium falciparum [25],7.23
same,pEC50,Plasmodium falciparum [26],7.39
